US20120183579A1, “COMPOUNDS FOR INFLAMMATION AND IMMUNE-RELATED USES” (Synta Pharmaceuticals Corp., priority 2008, published 2012)

Assays:
[1] = system: IL-2; assay: Inhibition of IL-2 production (Jurkat cells activated with PHA, ELISA); assay type: cell-based; conditions: Homo sapiens, Jurkat, Jurkat/PHA/1% FBS
Experimental: Jurkat cells were placed in a 96 well plate (0.5 million cells per well in 1% FBS medium), and then a test compound of this invention was added at different concentrations. After 10 minutes, the cells were activated with PHA (final concentration 2.5 μg/mL) and incubated for 20 hours at 37° C. under 5% CO2. The final volume was 200 μL. Following incubation, the cells were centrifuged, and the supernatants collected and stored at −70° C. prior to assaying for IL-2 production. A commercial ELISA kit (IL-2 Eli-pair, Diaclone Research, Besancon, France) was used to detect production of IL-2, from which dose response curves were obtained. The IC50 value was calculated as the concentration at which 50% of maximum IL-2 production after stimulation was inhibited versus a non-stimulation control.

[2] = target: T1, CRACM1/STIM1-CHOK1 (Homo sapiens, UniProt Q96D31); assay: Patch clamp inhibition of ICRAC current in CRACM1/STIM1-CHOK1 cells; assay type: cell-based; conditions: at 500 nM, activity class
T1 construct: Full length human Stim1, CracM1, CracM2 and CracM3 cDNA; Stim1 induced with doxycycline
T1 sequence (Q96D31 whole entry): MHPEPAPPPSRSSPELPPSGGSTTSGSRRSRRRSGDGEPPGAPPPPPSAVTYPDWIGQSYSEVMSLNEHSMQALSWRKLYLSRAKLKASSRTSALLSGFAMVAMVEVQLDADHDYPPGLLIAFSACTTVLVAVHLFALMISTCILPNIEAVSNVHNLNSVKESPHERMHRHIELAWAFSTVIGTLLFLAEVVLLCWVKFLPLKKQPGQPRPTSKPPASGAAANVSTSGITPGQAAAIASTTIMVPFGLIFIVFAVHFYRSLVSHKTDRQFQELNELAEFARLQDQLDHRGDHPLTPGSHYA
Experimental: Manual patch clamp experiments are conducted in the tight-seal whole-cell configuration at room temperature (21-25° C.). Patch pipettes are fashioned from borosilicate glass capillary tubes and have resistances between 2-4 MO after filling with standard intracellular solution. High resolution current recordings are acquired with a computer-based patch clamp amplifier system (EPC-10, HEKA, Lambrecht, Germany). All voltages are corrected for a liquid junction potential of 10 mV between external and internal solutions with glutamate as the intracellular anion. Currents are filtered at 2.9 kHz and digitized at 10 μs intervals. Capacitive currents and series resistance are determined and corrected before each voltage ramp using the automatic capacitance compensation of the EPC-10.
In general, a whole cell patch clamp method is used to examine the effects of a compound of the invention on a channel(s) that mediates ICRAC. In such experiments, a baseline ICRAC measurement is established within the first 70 voltage ramps, or 140 seconds, for a patched cell. Then the cells are perfused with the compound to be tested and the effect of the compound on ICRAC is measured for at least an additional 440 to 500 seconds. A compound that modulates ICRAC (e.g., inhibits) is a compound that is useful in the invention for modulating CRAC ion channel activity.
Each compound is diluted from a 10 mM stock in series using DMSO. The final DMSO concentration is always kept at 0.1%.
ICRAC currents are measured using 50 msec voltage ramps between −100 mV to +100 mV. The voltage ramps are stimulated every 2 seconds for the first 70 sweeps, then every 5 seconds for the remainder of the experiment. The membrane potential is held at 0 mV between the test ramps. In a typical experiment, the peak inward currents will develop within 50-100 seconds. Once the ICRAC current is stabilized, the cells are perfused with a test compound in the extracellular solution for at least an additional 500 seconds.
Off-line analysis with the Heka PatchMaster software is used to separate the ICRAC membrane current from the cells basal background currents. In a typical recording, InsP3 stimulated ICRAC currents begin to develop in 6 to 12 seconds after whole cell is established. Therefore, the first 1-4 voltage ramps represent the basal membrane currents in the absence of ICRAC and the average value is subtracted from all subsequent traces. The current value at −80 mV for each ramp trace is then measured and plotted against time. The resulting current versus time data is exported into a Microsoft Excel spreadsheet. The % ICRAC inhibition in each cell is calculated by comparing the amount of current just prior to the compound perfusion to the amount of current after the cells has been perfused with the compound for 440-500 seconds. The IC50 value and Hill coefficient for each compound is estimated by fitting all the individual data points to a single-site Hill equation.
TREx™-CHO cells were transfected with human Stim1 (recombinant DNA in pcDNA4/TO/myc-His™ A with a myc epitope tag in the N-terminal) and either CracM1, CracM2 or CracM3 (recombinant DNA in pcDNA 3.1 with a HA epitope tag in the N-terminal). Stably expressing cells were selected by growing the transfected cells in antibiotics for two to three weeks. Individual cell clones were isolated via serial dilution. […]

Compound	IC50 ([1]; activity class) [nM]	inhibition at 0.5 µM [2] [%]	IC50 ([1]; numeric values) [nM]
CC1=C(c2cnc(NC(=O)c3c(F)cccc3F)cn2)CN(c2nc(C)cs2)CC1 [Compound 1, 2,6-difluoro-N-(5-(4-methyl-1-(4-methylthiazol-2-yl)-1,2,5,6-tetrahydropyridin-3-yl)pyrazin-2-yl)benzamide]	50 to 100	70 to 100	
CC1=C(c2cnc(NC(=O)c3c(F)cccc3F)cn2)CN(S(=O)(=O)N(C)C)CC1 [Compound 2]	> 100	70 to 100	
CC1=C(c2ccc(NC(=O)c3cccc(F)c3F)cc2)CN(c2nccs2)CC1 [Compound 11, 2,3-difluoro-N-(4-(4-methyl-1-(thiazol-2-yl)-1,2,5,6-tetrahydropyridin-3-yl)phenyl)benzamide]	< 50	70 to 100	
CC1=C(c2ccc(NC(=O)c3ccncc3C)cc2)CN(c2nccnc2Cl)CC1 [Compound 14, N-(4-(1-(3-chloropyrazin-2-yl)-4-methyl-1,2,5,6-tetrahydropyridin-3-yl)phenyl)-3-methylisonicotinamide]	< 50	50 to 70	
CC1=C(c2ccc(NC(=O)c3ccncc3F)cc2)CN(c2nccnc2Cl)CC1 [Compound 15, N-(4-(1-(3-chloropyrazin-2-yl)-4-methyl-1,2,5,6-tetrahydropyridin-3-yl)phenyl)-3-fluoroisonicotinamide]	< 50	50 to 70	
C=CCOC(=O)N1CCC(C)=C(c2ccc(NC(=O)c3c(F)cccc3F)cc2)C1 [Compound 61, allyl 3-(4-(2,6-difluorobenzamido)phenyl)-4-methyl-5,6-dihydropyridine-1(2H)-carboxylate]			46
Cn1nnc(N2CCC(Cl)=C(c3cnc(NC(=O)c4cc(F)ccc4Cl)cn3)C2)n1 [Compound 62, 2-chloro-N-(5-(4-chloro-1-(2-methyl-2H-tetrazol-5-yl)-1,2,5,6-tetrahydropyridin-3-yl)pyrazin-2-yl)-5-fluorobenzamide]			49
CC1=C(c2cnc(NC(=O)c3ccc(F)cc3Cl)cn2)CN(c2ncccc2F)CC1 [Compound 63, 2-chloro-4-fluoro-N-(5-(1-(3-fluoropyridin-2-yl)-4-methyl-1,2,5,6-tetrahydropyridin-3-yl)pyrazin-2-yl) benzamide]			49
CC1=C(c2ccc(NC(=O)c3c(F)cccc3F)cc2)CN(S(=O)(=O)N(C)C)CC1 [Compound 64, N-(4-(1-(N,N-dimethylsulfamoyl)-4-methyl-1,2,5,6-tetrahydropyridin-3-yl)phenyl)-2,6-difluorobenzamide]			49
